{
  "source": "patent US8962843B2",
  "about": "“1,3,4-oxadiazole and 1,3,4-thiadiazole beta-lactamase inhibitors” (priority 2012, dated 2015)",
  "key": {"[1]": {"tested_on": "bacterial strains that express KPC β-lactamases", "experiment": "Standard BLI potentiation MIC / synergy MIC assays, strains expressing KPC β-lactamases", "format": "cell-based", "details": "in combination with a β-lactam; comparator Avibactam", "description": "(§1) The experimental protocol was performed according to Clinical and Laboratory Standards Institute (CLSI) guidelines with modifications as described below (CLSI guidelines can be derived from the CLSI document M07-A9 published in January 2012: “Methods for Dilution Antimicrobial Susceptibility Tests for Bacteria That Grow Aerobically; Approved Standard-Ninth Edition”).\n(§2) To prepare for MIC testing, frozen glycerol stocks of clinical isolates (Klebsiella pneumoniae, Eschericia coli, Enterobacter spp, Citrobacter spp, or Pseudomonas aeruginosa) were used to streak for isolated colonies on rich, non-selective, tryptic soy agar containing 5% sheep's blood (TSAB). Frozen glycerol stocks of laboratory engineered, isogenic E. coli strains, which contain cloned β-lactamase expressing plasmids were used to streak for isolated colonies on rich, selective LB agar supplemented with 25 μg/mL tetracycline to maintain the plasmid. All strains were incubated at 37° C. for 18-24 hrs.\n(§3) On the day of testing, primary cultures were started by scraping off 5-10 colonies from the TSAB plates containing clinical strains or the tetracycline supplemented LB plates containing engineered strains. The clinical strain material was suspended in ˜5 mL of cation adjusted Mueller Hinton Broth (CAMHB) in 14 mL culture tubes. The engineered strain material was suspended in CAMHB (supplemented with 25 μg/mL tetracycline) in 14 mL culture tubes. All strains were incubated at 37° C. with aeration (200 rpm) for ˜2 hrs until the optical density at 600 nm (OD600) was >0.1.\n(§4) The two compound components of the assay were each diluted in CAMHB and added to the 96-well broth microdilution assay plates. 50 μL of the β-lactam was added to each well of the assay plate in 2-fold dilutions with final concentrations ranging from 128 to 0.13 μg/mL. 25 μL of the BLI compound was added to all wells in the broth microdilution plates at a final concentration of 4 μg/mL. Inoculum cultures were prepared by standardizing the primary cultures to OD600=0.1 and then adding 20 μL of the adjusted primary culture per 1 mL CAMHB for clinical strains or CAMHB (supplemented with tetracycline at 100 μg/mL) for engineered strains, so that the final inoculum density was ˜10^5 colony forming units per milliliter. Diluted inoculum cultures were used to inoculate 25 μl, per well in 96-well broth microdilution assay plates. The final volume of each well was 100 μL and contained a β-lactam at different concentrations, a BLlcompound at 4 μg/mL concentration, the bacterial culture at an OD600 of approximately 0.001 and when necessary tetracycline at 25 μg/mL.\n(§5) Plates were incubated for 18-20 hours at 37° C. with aeration (200 rpm). Following incubation, growth was confirmed visually placing plates over a viewing apparatus (stand with a mirror underneath) and then OD600 was measured using a SpectraMax 340PC384 plate reader (Molecular Devices, Sunnyvale, Calif.). Growth was defined as turbidity that could be detected with the naked eye or achieving minimum OD600 of 0.1. MIC values were defined as the lowest concentration producing no visible turbidity.\n(§6) The synergy MIC (sMIC) assay determines the concentration of the BLI required to potentiate the activity of a fixed concentration of a β-lactam antibiotic against β-lactamase producing bacterial strains. The experimental protocol was performed according to Clinical and Laboratory Standards Institute (CLSI) guidelines with modifications as described below (CLSI guidelines can be derived from the CLSI document M07-A9 published in January 2012: “Methods for Dilution Antimicrobial Susceptibility Tests for Bacteria That Grow Aerobically; Approved Standard-Ninth Edition”). […]"}, "[2]": {"tested_on": "bacterial strains that express the class D cephalosporinase OXA-15", "experiment": "Standard BLI potentiation MIC / synergy MIC assays, strains expressing OXA-15", "format": "cell-based, E. coli", "details": "in combination with a β-lactam; comparator Avibactam (CCC)", "description": "as §1, §2, §3, §4, §5, §6"}},
  "note": "Structures can show the parent of a compound that is named as a salt.",
  "data": [
    {"smiles": "N[C@@H]1CN[C@@H](c2nnc([C@@H]3CC[C@@H]4CN3C(=O)N4OS(=O)(=O)O)o2)C1", "note": "[Compound 763, (2S,5R)-2-(5-((2R,4S)-4-aminopyrrolidin-2-yl)-1,3,4-oxadiazol-2-yl)-7-oxo-1,6-diazabicyclo[3.2.1]octan-6-yl hydrogen sulfate]", "values": [
      {"measurement": "activity and/or spectrum of activity against bacterial strains that express KPC β-lactamases, compared with Avibactam", "setting": "[1]", "value": "more active than Avibactam for at least one, bacterial strain that expresses KPC β-lactamase and/or show a better spectrum of activity"},
      {"measurement": "activity against bacterial strains that express the class D cephalosporinase OXA-15, compared with Avibactam", "setting": "[2]", "value": "more active than Avibactam"}
    ]},
    {"smiles": "N[C@H]1C[C@H](c2nnc([C@@H]3CC[C@@H]4CN3C(=O)N4OS(=O)(=O)O)s2)C1", "note": "[Compound 783, (2S,5R)-2-(5-((1r,3S)-3-aminocyclobutyl)-1,3,4-thiadiazol-2-yl)-7-oxo-1,6-diazabicyclo[3.2.1]octan-6-yl hydrogen sulfate]", "values": [
      {"measurement": "activity and/or spectrum of activity against bacterial strains that express KPC β-lactamases, compared with Avibactam", "setting": "[1]", "value": "more active than Avibactam for at least one, bacterial strain that expresses KPC β-lactamase and/or show a better spectrum of activity"},
      {"measurement": "activity against bacterial strains that express the class D cephalosporinase OXA-15, compared with Avibactam", "setting": "[2]", "value": "more active than Avibactam"}
    ]},
    {"smiles": "NCc1nnc([C@@H]2CC[C@@H]3CN2C(=O)N3OS(=O)(=O)O)o1", "note": "[Compound 702, (2S,5R)-2-(5-(aminomethyl)-1,3,4-oxadiazol-2-yl)-7-oxo-1,6-diazabicyclo[3.2.1]octan-6-yl hydrogen sulfate]", "values": [
      {"measurement": "activity and/or spectrum of activity against bacterial strains that express KPC β-lactamases, compared with Avibactam", "setting": "[1]", "value": "more active than Avibactam for at least one, bacterial strain that expresses KPC β-lactamase and/or show a better spectrum of activity"},
      {"measurement": "activity against bacterial strains that express the class D cephalosporinase OXA-15, compared with Avibactam", "setting": "[2]", "value": "more active than Avibactam"}
    ]},
    {"smiles": "N[C@H]1CN[C@H](c2nnc([C@@H]3CC[C@@H]4CN3C(=O)N4OS(=O)(=O)O)o2)C1", "note": "[Compound 762, (2S,5R)-2-(5-((2S,4R)-4-aminopyrrolidin-2-yl)-1,3,4-oxadiazol-2-yl)-7-oxo-1,6-diazabicyclo[3.2.1]octan-6-yl hydrogen sulfate]", "values": [
      {"measurement": "activity and/or spectrum of activity against bacterial strains that express KPC β-lactamases, compared with Avibactam", "setting": "[1]", "value": "more active than Avibactam for at least one, bacterial strain that expresses KPC β-lactamase and/or show a better spectrum of activity"},
      {"measurement": "activity against bacterial strains that express the class D cephalosporinase OXA-15, compared with Avibactam", "setting": "[2]", "value": "more active than Avibactam"}
    ]},
    {"smiles": "O=C1N2C[C@@H](CC[C@H]2c2nnc([C@H]3CNCCN3)o2)N1OS(=O)(=O)O", "note": "[Compound 779, (2S,5R)-7-oxo-2-(5((R)-piperazin-2-yl)-1,3,4-oxadiazol-2-yl)-1,6-diazabicyclo[3.2.1]octan-6-yl hydrogen sulfate]", "values": [
      {"measurement": "activity and/or spectrum of activity against bacterial strains that express KPC β-lactamases, compared with Avibactam", "setting": "[1]", "value": "more active than Avibactam for at least one, bacterial strain that expresses KPC β-lactamase and/or show a better spectrum of activity"},
      {"measurement": "activity against bacterial strains that express the class D cephalosporinase OXA-15, compared with Avibactam", "setting": "[2]", "value": "more active than Avibactam"}
    ]},
    {"smiles": "NC1CCN(CCc2nnc([C@@H]3CC[C@@H]4CN3C(=O)N4OS(=O)(=O)O)o2)CC1", "note": "[Compound 775, (2S,5R)-2-(5-(2-(4-aminopiperidin-1-ybethyl)-1,3,4-oxadiazol-2-yl)-7-oxo-1,6-diazabicyclo[3.2.1]octan-6-yl hydrogen sulfate]", "values": [
      {"measurement": "activity and/or spectrum of activity against bacterial strains that express KPC β-lactamases, compared with Avibactam", "setting": "[1]", "value": "more active than Avibactam for at least one, bacterial strain that expresses KPC β-lactamase and/or show a better spectrum of activity"}
    ]},
    {"smiles": "N[C@@H]1CN[C@H](c2nnc([C@@H]3CC[C@@H]4CN3C(=O)N4OS(=O)(=O)O)o2)C1", "note": "[Compound 760, (2S,5R)-2-(5-((2S,4S)-4-aminopyrrolidin-2-yl)-1,3,4-oxadiazol-2-yl)-7-oxo-1,6-diazabicyclo[3.2.1]octan-6-yl hydrogen sulfate]", "values": [
      {"measurement": "activity and/or spectrum of activity against bacterial strains that express KPC β-lactamases, compared with Avibactam", "setting": "[1]", "value": "more active than Avibactam for at least one, bacterial strain that expresses KPC β-lactamase and/or show a better spectrum of activity"},
      {"measurement": "activity against bacterial strains that express the class D cephalosporinase OXA-15, compared with Avibactam", "setting": "[2]", "value": "more active than Avibactam"}
    ]},
    {"smiles": "N=C(N)NC[C@@H](O)c1nnc([C@@H]2CC[C@@H]3CN2C(=O)N3OS(=O)(=O)O)o1", "note": "[Compound 731, (2S,5R)-2-(5-((R)-2-guanidino-1-hydroxyethyl)-1,3,4-oxadiazol-2-yl)-7-oxo-1,6-diazabicyclo[3.2.1]octan-6-yl hydrogen sulfate]", "values": [
      {"measurement": "activity and/or spectrum of activity against bacterial strains that express KPC β-lactamases, compared with Avibactam", "setting": "[1]", "value": "more active than Avibactam for at least one, bacterial strain that expresses KPC β-lactamase and/or show a better spectrum of activity"},
      {"measurement": "activity against bacterial strains that express the class D cephalosporinase OXA-15, compared with Avibactam", "setting": "[2]", "value": "more active than Avibactam"}
    ]},
    {"smiles": "O=C1N2C[C@@H](CC[C@H]2c2nnc([C@H]3CCNC3)o2)N1OS(=O)(=O)O", "note": "[Compound 758, (2S,5R)-7-oxo-2-(5-((S)-pyrrolidin-3-yl)-1,3,4-oxadiazol-2-yl)-1,6-diazabicyclo[3.2.1]octan-6-yl hydrogen sulfate]", "values": [
      {"measurement": "activity and/or spectrum of activity against bacterial strains that express KPC β-lactamases, compared with Avibactam", "setting": "[1]", "value": "more active than Avibactam for at least one, bacterial strain that expresses KPC β-lactamase and/or show a better spectrum of activity"},
      {"measurement": "activity against bacterial strains that express the class D cephalosporinase OXA-15, compared with Avibactam", "setting": "[2]", "value": "more active than Avibactam"}
    ]},
    {"smiles": "O=C1N2C[C@@H](CC[C@H]2c2nnc(C3CC4(CNC4)C3)o2)N1OS(=O)(=O)O", "note": "[Compound 750, (2S,5R)-2-(5-(2-azaspiro[3.3]heptan-6-yl)-1,3,4-oxadiazol-2-yl)-7-oxo-1,6-diazabicyclo[3.2.1]octan-6-yl hydrogen sulfate]", "values": [
      {"measurement": "activity and/or spectrum of activity against bacterial strains that express KPC β-lactamases, compared with Avibactam", "setting": "[1]", "value": "more active than Avibactam for at least one, bacterial strain that expresses KPC β-lactamase and/or show a better spectrum of activity"},
      {"measurement": "activity against bacterial strains that express the class D cephalosporinase OXA-15, compared with Avibactam", "setting": "[2]", "value": "more active than Avibactam"}
    ]},
    {"smiles": "N=C(N)NC1CC(Cc2nnc([C@@H]3CC[C@@H]4CN3C(=O)N4OS(=O)(=O)O)o2)C1", "note": "(stereo partly drawn) [Compound 752, (2S,5R)-2-(5-((3-guanidinocyclobutyl)methyl)-1,3,4-oxadiazol-2-yl)-7-oxo-1,6-diazabicyclo[3.2.1]octan-6-yl hydrogen sulfate]", "values": [
      {"measurement": "activity and/or spectrum of activity against bacterial strains that express KPC β-lactamases, compared with Avibactam", "setting": "[1]", "value": "more active than Avibactam for at least one, bacterial strain that expresses KPC β-lactamase and/or show a better spectrum of activity"},
      {"measurement": "activity against bacterial strains that express the class D cephalosporinase OXA-15, compared with Avibactam", "setting": "[2]", "value": "more active than Avibactam"}
    ]},
    {"smiles": "N[C@H]1C[C@H](CCc2nnc([C@@H]3CC[C@@H]4CN3C(=O)N4OS(=O)(=O)O)o2)C1", "note": "[Compound 753, (2S,5R)-2-(5-(2-((1r,3R)-3-aminocyclobutyl)ethyl)-1,3,4-oxadiazol-2-yl)-7-oxo-1,6-diazabicyclo[3.2.1]octan-6-yl hydrogen sulfate]", "values": [
      {"measurement": "activity and/or spectrum of activity against bacterial strains that express KPC β-lactamases, compared with Avibactam", "setting": "[1]", "value": "more active than Avibactam for at least one, bacterial strain that expresses KPC β-lactamase and/or show a better spectrum of activity"},
      {"measurement": "activity against bacterial strains that express the class D cephalosporinase OXA-15, compared with Avibactam", "setting": "[2]", "value": "more active than Avibactam"}
    ]},
    {"smiles": "O=C1N2C[C@@H](CC[C@H]2c2nnc(COC3CNC3)o2)N1OS(=O)(=O)O", "note": "[Compound 744, (2S,5R)-2-(5-((azetidin-3-yloxy)methyl)-1,3,4-oxadiazol-2-yl)-7-oxo-1,6-diazabicyclo[3.2.1]octan-6-yl hydrogen sulfate]", "values": [
      {"measurement": "activity and/or spectrum of activity against bacterial strains that express KPC β-lactamases, compared with Avibactam", "setting": "[1]", "value": "more active than Avibactam for at least one, bacterial strain that expresses KPC β-lactamase and/or show a better spectrum of activity"},
      {"measurement": "activity against bacterial strains that express the class D cephalosporinase OXA-15, compared with Avibactam", "setting": "[2]", "value": "more active than Avibactam"}
    ]},
    {"smiles": "O=C1N2C[C@@H](CC[C@H]2c2nnc(CCCCNC3CCNCC3)o2)N1OS(=O)(=O)O", "note": "[Compound 772, (2S,5R)-7-oxo-2-(5-(4-(piperidin-4-ylamino)butyl)-1,3,4-oxadiazol-2-yl)-1,6-diazabicyclo[3.2.1]octan-6-yl hydrogen sulfate]", "values": [
      {"measurement": "activity and/or spectrum of activity against bacterial strains that express KPC β-lactamases, compared with Avibactam", "setting": "[1]", "value": "more active than Avibactam for at least one, bacterial strain that expresses KPC β-lactamase and/or show a better spectrum of activity"},
      {"measurement": "activity against bacterial strains that express the class D cephalosporinase OXA-15, compared with Avibactam", "setting": "[2]", "value": "more active than Avibactam"}
    ]}
  ]
}
